Assay results: patent US8106096B2, “Compositions and methods for treatment of optic nerve diseases” (University of Maryland, Baltimore, priority 2008, dated 2012)
“Also recorded” adds a separate entry of the source.

Tests used:
[1] = system: ED-1(+) extrinsic macrophages; experiment: Extrinsic macrophage (ED-1(+)) recruitment into ON after rAION induction; format: in vivo, rodent
Description: The present inventor has evaluated the location of early ON-macrophage activity following rAION induction, using antibodies for both general cellular inflammation (IBA-1) and extrinsic macrophages (detected by antibody to ED-1). […] Few, if any extrinsic macrophages are present in normal uninfarcted ON (results not shown). Following rAION induction, ED-1(+) extrinsic macrophages enter the ON and cluster in the primary ischemic lesion site immediately behind the retina/ON junction. Little extrinsic macrophage infiltration occurs >250 microns post-ON/retina junction. […] Control (vehicle treated animals) show a similar pattern (data not shown). […] Extrinsic macrophages extend beyond the initial lesion site, even during early axonal degeneration occurring 6 days post-induction. Thus, it is possible to administer intraventricular GM-CSF to recruit extrinsic macrophages into the ON following rAION, and determine whether the macrophage recruitment approach is useful to enhancing ON-axonal repair and regeneration following ON infarct.

[2] = system: retinal ganglion cells (RGC); experiment: Stereological analysis of RGC numbers after rAION (ON stroke); format: in vivo, rat
Description: Stereological analysis of RGC numbers in naïve and rAION induced rat retinae treated with either PGJ2 or Vehicle (PBS). Animals were injected IV 1Xd for 3 days with either 100 mg/kg PGJ2 or PBS-vehicle. Animals were euthanized and retinae analyzed 30 days post-rAION induction. Average numbers based on 4 retinae/group; RGC stereology derived from Brn3a (+) RGC immunostaining.
Statistical analysis of 15-deoxy delta (12,14) PGJ2 administration to rats after optic nerve (ON) stroke. […] The ordinate represents the number of retinal ganglion cells in each retina. The abscissa represents the number of fields of cells counted to reach a statistically valid number as determined by the field of stereology. The green line represents the typical number of retinal ganglion cells in the untreated (naïve; no stroke) rat retina. The response of rat retina and optic nerve to vehicle treatment is shown in yellow. The response of PGJ2 treated animals is shown in Blue.
rAION-associated cell loss is analyzed using stereological analysis.
Rats were used for this experiment and ON stroke was administered to a 75% predicted loss of RGCs by the method of Bernstein et al., 2003, supra. RGC's were counted in each retina in the untreated (naïve; no stroke) and rats with rAION treated with PGJ2.

optic nerve (ON) edema = experiment: ON edema after rAION by direct fundus observation in the living animal; format: in vivo, rat; settings: post-infarct administration (systemic and intravitreal), first 3 days post-induction; 1-3 days following rAION
Description: PGJ2-treated animals have 72.4% of the number of naïve RGCs compared with 34.3 for vehicle treated animals (black bar, FIG. 2).

Row | Compound | numbers of ED-1(+) cells in ON ([1]; 1 ug stereotactically injected into the superior colliculus, 6 days post-induction, vehicle controls show a similar pattern) | recruitment of ED-1(+) cells in rAION-induced ONs ([1]; intraventricular injection, data not shown) | ability to recruit extrinsic macrophages ([1]; rAION, IBA-1 and ED-1 antibodies, data not shown) | RGC survival ([2]; 30 days post-rAION induction) | number of RGCs relative to naïve RGCs ([2]; rat rAION, IV 1Xd for 3 days, 100 mg/kg, 30 days post-rAION induction, Brn3a(+) RGC stereology) [%] | preservation of the neurons whose axons comprise the optic nerve ([2]; rats, ON stroke to a 75% predicted loss of RGCs, PGJ2 treatment after stroke) | ON edema (optic nerve (ON) edema)
1 | GM-CSF: Granulocyte-Macrophage Colony Stimulating Factor; directly activates macrophages and recruits extrinsic macrophages | decreased numbers of ED-1(+) cells | significantly enhanced recruitment of ED-1(+) cells | has the ability to recruit extrinsic macrophages | – | – | – | –
2 | CCCCC/C=C/C=C1/C(=O)C=C[C@@H]1C/C=C\CCCC(=O)O [PGJ2, 15 deoxy delta 12,14 prostaglandin J2] | – | – | – | increased RGC survival | 72.4 | 35-50% | reduced gross ON edema; also recorded: reduces ON edema
